The text below walks through data of patent US10578610B2, “Peptide regulators of mitochondrial fusion and methods of use” (priority 2016, dated 2020).

Ends that are not written are not given here.

Common to all, as to format: cell-based, murine
Test [1] relates to mitochondrial mitofusins in WT MEFs. The test can be described thus: Confocal localization of FITC-labeled TAT-minipeptides. The protocol:
(§1) The above results support the premise that TAT-conjugated Mfn2 minipeptides affect mitochondrial fusion by modulating Mfn1 and Mfn2 conformation according to the dynamic structure model depicted in FIGS. 3A-3C. Additional studies were performed to validate this mechanism of action using the minipeptide-Mfn2 binding assay procedure. Confocal localization of FITC-labeled TAT-minipeptides in WT MEFs and Mfn null MEFs (Mfn1/Mfn2 DKO) was used for analysis of interaction between the minipeptides and mitochondrial mitofusins. Mitochondria were stained with MitoTracker Orange; nucleus was stained with Blue Hoechst. Line-scans were generated for the confocal photographs.
(§2) Thus, cell-internalized TAT-conjugated Mfn2 HR1 minipeptides bind specifically to mitochondrial mitofusins.

In test [2] the test system is MEFs. The test can be described thus: Mitochondrial fusion by mixing of organellar contents after PEG-mediated cell fusion. Particulars: 1 μM for 6 hours. Here is the method:
MEFs or neurons were grown on chamber slides and infected with recombinant adenoviri for 48-72 hours unless otherwise indicated. MEFs were stained with MitoTracker Green (200 nM, Invitrogen M7514) and Blue Hoechst (10 mg/ml, Invitrogen H3570), with or without tetramethylrhodamine ethyl ester (TMRE; 200 nM, Invitrogen T-669). Neuronal mitochondria were labeled with adenoviral-expressed mitoGFP plus TMRE, or with adeno-mitoDsRed for time-lapse studies. […] Mitochondrial fusion was measured at 2 and 6 hours after PEG-mediated cell fusion of MEFs treated 48 hours previously with adeno-mitoGFP or adeno-mitoDsRed (Chen et al., 2005, J Biol Chem, 280:26185-26192). Laser confocal fluorescence was excited with 561 nm (MitoTracker Green, GFP, FITC), 637 nm (TMRE, LysoTracker Red, mcherry-Parkin, MitoTracker Orange) or 408 nm (Blue Hoechst) laser diodes. Image analysis—Mitochondrial aspect ratio was calculated using automated edge detection and Image J software (Song et al., 2015, Cell Metab, 21:273-285). Mitochondrial depolarization was calculated as % of green mitochondria visualized on MitoTracker Green and TMRE merged images, expressed as green/(green+yellow mitochondria)×100. Parkin aggregation was calculated as % of cells with mitochondrial clumping of mcherry-Parkin (Song et al., 2015, Cell Metab, 21:273-285). […]

Test [3] relates to Mfn2 KO MEFs. The test can be described thus: TAT-minipeptides in a cell model of Mfn2 deficiency. Particulars: 1 μM or 5 μM, 24 hours, data not shown. The text has this: Enhancing Mfn1- or Mfn2-mediated mitochondrial fusion with TAT-367-384 Gly has potential to alleviate mitochondrial morphological abnormalities like those evoked in CMT2A caused by nonsense or damaging non-synonymous Mfn2 mutations (Bombelli et al., 2014, JAMA Neurol, 71:1036-1042). It was reasoned that mitochondrial morphology would improve if endogenous normal Mfn1 or Mfn2 were assisted into their active conformations in which the D2 region is extended and/or available for interaction with the D2 region of a second Mfn protein (e.g., FIGS. 1B and 3B). This notion was tested in Mfn2 KO MEFs, a cell model of Mfn2 deficiency. WT MEFs and Mfn2 KO MEFs were treated with 1 μM or 5 μM TAT-367-384Gly peptide or TAT-398-418Gly peptide.

Test [4] has as its system Mfn1/Mfn2 DKO MEFs. The test can be described thus: Confocal localization of FITC-labeled TAT-minipeptides in mitofusin null cells. Particulars: MEFs completely lacking mitofusins. The protocol:
as §1, §2

Take “QIAEAVRGIMDSLHMAARGGYGRKKRRQRRR [TAT-367-384Gly]”: the “localization of FITC-labeled TAT-peptide to mitochondria” value is “decorated mitochondria” in test [1] and “not to MEFs completely lacking mitofusins” in test [4]. The “rate of mitochondrial content mixing (mitochondrial fusion)” value in test [2] is reported as “more than doubled”. Besides, in test [3], the mitochondrial aspect ratio entry was “normalized mitochondrial aspect ratio”.
The like results for “QDRLKFIDKQGELLAQDYKLRGGYGRKKRRQRRR [TAT-398-418Gly]” were, in that order, “decorated mitochondria”, “not to MEFs completely lacking mitofusins”, “completely suppressed mitochondrial fusion” and “exaggerated mitochondrial shortening”.
